This note sets out measurements from patent publication USRE49735E1 (BRISTOL-MYERS SQUIBB COMPANY, priority 2010, dated 2023).

pEC50: −log10 of the molar value. Several values for one entry are separate records, joined by “and”; a condition that tells them apart may be missing. Equal entries are not always repeated.

The target in the test is human mGluR5A (Homo sapiens, UniProt P41594). The test is described as follows: mGluR5 FLIPR Assay. The class given is cell-based. Conditions: positive modulator activity; HEK293 (ZF) cells with human mGluR5A and rat GLAST; Ca++ response to ~EC10 glutamate.
Chain of human mGluR5A (P41594 21-1180 isoform P41594-2): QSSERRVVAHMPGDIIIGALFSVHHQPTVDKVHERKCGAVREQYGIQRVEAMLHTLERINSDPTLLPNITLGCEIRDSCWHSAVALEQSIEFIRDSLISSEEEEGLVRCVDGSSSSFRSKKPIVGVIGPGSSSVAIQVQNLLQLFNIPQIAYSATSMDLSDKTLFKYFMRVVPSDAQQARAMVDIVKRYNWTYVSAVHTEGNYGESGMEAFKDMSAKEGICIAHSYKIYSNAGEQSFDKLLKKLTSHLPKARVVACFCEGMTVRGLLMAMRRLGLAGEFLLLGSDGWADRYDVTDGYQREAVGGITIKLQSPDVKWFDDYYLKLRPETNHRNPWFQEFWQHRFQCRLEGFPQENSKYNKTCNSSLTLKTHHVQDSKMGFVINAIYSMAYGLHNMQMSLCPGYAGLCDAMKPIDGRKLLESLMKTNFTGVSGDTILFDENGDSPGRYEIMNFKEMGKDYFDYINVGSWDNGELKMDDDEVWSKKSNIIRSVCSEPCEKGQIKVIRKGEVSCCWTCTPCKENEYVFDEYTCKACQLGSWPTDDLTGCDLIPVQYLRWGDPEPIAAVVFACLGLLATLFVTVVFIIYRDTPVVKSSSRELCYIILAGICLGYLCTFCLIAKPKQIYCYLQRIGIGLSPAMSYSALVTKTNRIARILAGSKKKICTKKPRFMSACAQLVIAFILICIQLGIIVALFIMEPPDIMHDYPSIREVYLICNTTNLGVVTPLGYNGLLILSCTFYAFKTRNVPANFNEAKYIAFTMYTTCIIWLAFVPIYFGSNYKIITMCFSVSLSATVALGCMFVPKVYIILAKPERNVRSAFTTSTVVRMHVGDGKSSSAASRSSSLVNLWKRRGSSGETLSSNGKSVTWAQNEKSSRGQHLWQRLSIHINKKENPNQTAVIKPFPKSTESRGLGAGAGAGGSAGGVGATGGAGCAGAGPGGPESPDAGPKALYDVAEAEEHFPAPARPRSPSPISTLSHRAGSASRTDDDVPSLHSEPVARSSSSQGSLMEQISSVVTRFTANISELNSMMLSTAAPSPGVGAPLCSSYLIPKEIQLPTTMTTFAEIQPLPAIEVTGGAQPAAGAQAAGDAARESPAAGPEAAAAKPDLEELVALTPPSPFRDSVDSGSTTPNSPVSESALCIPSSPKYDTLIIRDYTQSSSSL
By pEC50 is commonly meant the negative decadic logarithm of the EC50, by convention in mol/L. Read a high pEC50 as a small EC50. `O=C1N[C@H](c2cccc(C#Cc3ccccc3)c2)[C@@H](c2ccccn2)O1` [Example 231]: the pEC50 is more than 7.00.
Under `O=C1N[C@@H](c2cccc(C#Cc3ccccc3)c2)[C@H](c2ccccn2)O1` [Example 232] stands less than 6.00; under `O=C1N[C@H](c2cccc(C#Cc3ccccn3)c2)[C@@H](c2ccncc2)O1` [Example 233], more than 7.00.
Under `O=C1N[C@H](c2cccc(C#Cc3ccccc3)c2)[C@@H](c2ccncc2)O1` [Example 234] stands > 7.00 and 8.57; under `O=C1N[C@H](c2cccc(C#Cc3cccnc3)c2)[C@@H](c2ccncc2)O1` [Example 235], 6.00 to 7.00 and 6.68.
To `O=C1N[C@@H](c2cccc(C#Cc3cccnc3)c2)[C@H](c2ccncc2)O1` [Example 236] belongs less than 6.00; to `O=C1N[C@H](c2cccc(C#Cc3cncc(F)c3)c2)[C@@H](c2cccnc2)O1` [Example 237], 6.00 to 7.00.
On to `O=C1N[C@@H](c2cccc(C#Cc3ccccc3)c2)[C@H](c2ccncn2)O1` [Example 238], for which the pEC50 was less than 6.00.
On to `O=C1N[C@H](c2cccc(C#Cc3ccccc3)c2)[C@@H](c2ccncn2)O1` [Example 239], for which the pEC50 is more than 7.00.
To `O=C1N[C@@H](c2cccc(C#Cc3cccnc3)c2)[C@H](c2ccncn2)O1` [Example 240] belongs less than 6.00; to `O=C1N[C@H](c2cccc(C#Cc3cccnc3)c2)[C@@H](c2ccncn2)O1` [Example 241], less than 6.00.
To `O=C1N[C@@H](c2cccc(C#Cc3ccccc3)c2)[C@H](c2cccnn2)O1` [Example 242] belongs less than 6.00; to `O=C1N[C@H](c2cccc(C#Cc3ccccc3)c2)[C@@H](c2cccnn2)O1` [Example 243], 6.00 to 7.00 and 6.57; to `O=C1N[C@H](c2cccc(C#Cc3cncc(F)c3)c2)[C@@H](c2ccncn2)O1` [Example 244], less than 6.00.
To `O=C1N[C@@H](c2cccc(C#Cc3ccccc3)c2)[C@H](c2cnccn2)O1` [Example 245] belongs less than 6.00; to `O=C1N[C@H](c2cccc(C#Cc3ccccc3)c2)[C@@H](c2cnccn2)O1` [Example 246], less than 6.00; to `O=C1N[C@H](c2cccc(C#Cc3ccccc3)c2)[C@H](c2cnccn2)O1` [Example 247], less than 6.00.
`O=C1N[C@@H](c2cccc(C#Cc3cccnc3)c2)[C@H](c2cnccn2)O1` [Example 248] had a pEC50 of less than 6.00.
Compound `O=C1N[C@H](c2cccc(C#Cc3cccnc3)c2)[C@@H](c2cnccn2)O1` [Example 249] gave a pEC50 of less than 6.00.
Under `O=C1N[C@@H](c2cccc(C#Cc3cccnc3)c2)[C@@H](c2cnccn2)O1` [Example 250] stands less than 6.00; under `O=C1N[C@H](c2cccc(C#Cc3cccnc3)c2)[C@H](c2cnccn2)O1` [Example 251], less than 6.00; under `O=C1N[C@H](c2ccnc(C#Cc3cccc(F)c3)c2)[C@@H](c2cccnc2)O1` [Example 252], less than 6.00.
To `O=C1N[C@H](c2ccnc(C#Cc3cncc(F)c3)c2)[C@@H](c2cccnc2)O1` [Example 253] belongs less than 6.00; to `O=C1N[C@H](c2ccnc(C#Cc3ccccc3)c2)[C@@H](c2cccnc2)O1` [Example 254], less than 6.00.
Under `N#Cc1cccc(C#Cc2cc([C@H]3NC(=O)O[C@@H]3c3cccnc3)ccn2)c1` [Example 255] stands less than 6.00; under `O=C1N[C@H](c2cncc(C#Cc3cncc(F)c3)c2)[C@@H](c2cccc(F)c2)O1` [Example 256], more than 7.00.
As to `N#Cc1cncc(C#Cc2cncc([C@H]3NC(=O)O[C@@H]3c3cccc(F)c3)c2)c1` [Example 257], the negative logarithm of the EC50 (pEC50) was 6.00 to 7.00 and 6.79.
Under `O=C1N[C@H](c2ccnc(C#Cc3cccnc3)c2)[C@@H](c2cccc(F)c2)O1` [Example 258] stands more than 7.00.
To `O=C1N[C@H](c2ccnc(C#Cc3ccccc3)c2)[C@@H](c2cccc(F)c2)O1` [Example 259] belongs > 7.00 and 8.72; to `COc1cccc([C@H]2OC(=O)N[C@@H]2c2cccc(C#Cc3ccc(SC)cc3)c2)c1` [Example 260], less than 6.00; to `COc1cccc([C@H]2OC(=O)N[C@@H]2c2cccc(C#Cc3ccc(C(C)=O)cc3)c2)c1` [Example 261], less than 6.00.
As to `COc1cccc([C@H]2OC(=O)N[C@@H]2c2cccc(C#Cc3cccc(Cl)c3)c2)c1` [Example 262], the pEC50 was 6.00 to 7.00.
Under `COc1cccc([C@H]2OC(=O)N[C@@H]2c2cccc(C#Cc3ccc(Cl)cc3)c2)c1` [Example 263] stands less than 6.00; under `COc1cccc([C@H]2OC(=O)N[C@@H]2c2cccc(C#Cc3ccc(C#N)cc3)c2)c1` [Example 264], 6.00 to 7.00.
To `COc1cccc([C@H]2OC(=O)N[C@@H]2c2cccc(C#Cc3ccccc3N)c2)c1` [Example 265] belongs 6.00 to 7.00.
On to `COC(=O)c1ccc(C#Cc2cccc([C@H]3NC(=O)O[C@@H]3c3cccc(OC)c3)c2)cc1` [Example 266], for which the pEC50 is 6.00 to 7.00.
To `COC(=O)c1cccc(C#Cc2cccc([C@H]3NC(=O)O[C@@H]3c3cccc(OC)c3)c2)c1` [Example 267] belongs 6.00 to 7.00; to `COc1cccc([C@H]2OC(=O)N[C@@H]2c2cccc(C#Cc3ccc(OC(F)(F)F)cc3)c2)c1` [Example 268], less than 6.00.
The compound `COc1cccc([C@H]2OC(=O)N[C@@H]2c2cccc(C#Cc3cccc(OC(F)(F)F)c3)c2)c1` [Example 269] had a pEC50 of less than 6.00.
`O=C1N[C@H](c2nccc(C#Cc3ccccc3)n2)[C@@H](c2cccc(F)c2)O1` [Example 273] had a pEC50 of less than 5.52.
Under `O=C1N[C@@H](c2nccc(C#Cc3ccccc3)n2)[C@H](c2cccc(F)c2)O1` [Example 274] stands less than 6.00.
In turn, `O=C1N[C@H](c2ccnc(C#Cc3ccccc3)n2)[C@@H](c2cccc(F)c2)O1` [Example 275] had a pEC50 of more than 7.00.
With `O=C1N[C@@H](c2ccnc(C#Cc3ccccc3)n2)[C@H](c2cccc(F)c2)O1` [Example 276], the pEC50 is 6.00 to 7.00 and 6.33.
To `O=C1N[C@H](c2cncc(C#Cc3ccccc3)c2)[C@@H](c2cccc(F)c2F)O1` [Example 277] belongs > 7.00 and 7.67.
To `O=C1N[C@H](c2cncc(C#Cc3ccccc3)c2)[C@@H](c2c(F)cccc2F)O1` [Example 278] belongs less than 6.00.
Under `O=C1N[C@H](c2cncc(C#Cc3ccc(F)cc3)c2)[C@@H](c2cc(F)ccc2F)O1` [Example 279] stands more than 7.00.
In turn, `O=C1N[C@H](c2cncc(C#Cc3cccc(Cl)c3)c2)[C@@H](c2cccc(F)c2F)O1` [Example 280] had a pEC50 of less than 6.00.
Under `O=C1N[C@H](c2cncc(C#Cc3cccc(Cl)c3)c2)[C@@H](c2c(F)cccc2F)O1` [Example 281] stands less than 6.00.
To `O=C1N[C@H](c2cncc(C#Cc3ccccc3F)c2)[C@@H](c2cc(F)ccc2F)O1` [Example 282] belongs more than 7.00; to `O=C1N[C@H](c2cncc(C#Cc3cccc(F)c3)c2)[C@@H](c2cc(F)ccc2F)O1` [Example 283], more than 7.00; to `O=C1N[C@H](c2cncc(C#Cc3ccccc3F)c2)[C@@H](c2cccc(F)c2F)O1` [Example 284], more than 7.00.
To `O=C1N[C@H](c2cncc(C#Cc3cccc(F)c3)c2)[C@@H](c2cccc(F)c2F)O1` [Example 285] belongs 6.00 to 7.00; to `O=C1N[C@H](c2cncc(C#Cc3ccc(F)cc3)c2)[C@@H](c2cccc(F)c2F)O1` [Example 286], more than 7.00.
Regarding `O=C1N[C@H](c2cncc(C#Cc3ccccc3Cl)c2)[C@@H](c2cccc(F)c2F)O1` [Example 287], the pEC50 was 6.00 to 7.00.
In turn, `C[C@@]1(c2cc(F)ccc2F)OC(=O)N[C@H]1c1cncc(C#Cc2ccccc2)c1` [Example 288] had a pEC50 of 6.00 to 7.00.
Under `C[C@]1(c2cc(F)ccc2F)OC(=O)N[C@@H]1c1cncc(C#Cc2ccccc2)c1` [Example 289] stands more than 7.00; under `C[C@@]1(c2cc(F)ccc2F)OC(=O)N[C@@H]1c1cncc(C#Cc2ccccc2)c1` [Example 290], less than 6.00; under `C[C@]1(c2cc(F)ccc2F)OC(=O)N[C@H]1c1cncc(C#Cc2ccccc2)c1` [Example 291], 6.00 to 7.00.
To `O=C1N[C@H](c2cncc(C#Cc3ccccc3)c2)[C@@H](c2c(F)cc(F)cc2F)O1` [Example 292] belongs more than 7.00; to `O=C1N[C@H](c2cncc(C#Cc3ccccc3)c2)[C@@H](c2cc(F)cc(F)c2F)O1` [Example 293], less than 6.00.
Under `O=C1N[C@H](c2cncc(C#Cc3ccccc3)c2)[C@@H](c2ccc(F)c(F)c2F)O1` [Example 294] stands > 7.00 and 8.57; under `O=C1N[C@H](c2cncc(C#Cc3cnccn3)c2)[C@@H](c2c(F)cc(F)cc2F)O1` [Example 295], less than 6.00.
As to `O=C1N[C@H](c2cncc(C#Cc3cnccn3)c2)[C@@H](c2ccc(F)c(F)c2F)O1` [Example 296], the pEC50 was more than 7.00.
To `O=C1N[C@H](c2cc(C#Cc3ccccc3)cnc2F)[C@@H](c2cccc(F)c2)O1` [Example 299, (4R,5R)-4-(2-Fluoro-5-(phenylethynyl)pyridin-3-yl)-5-(3-fluorophenyl)oxazolidin-2-one] belongs more than 7.00; to `COc1ncc(C#Cc2ccccc2)cc1[C@H]1NC(=O)O[C@@H]1c1cccc(F)c1` [Example 300, (4R,5R)-5-(3-Fluorophenyl)-4-(2-methoxy-5-(phenylethynyl)pyridin-3-yl)oxazolidin-2-one], more than 7.00.
To `O=C1N[C@H](c2cc(C#Cc3ccccc3)ncc2F)[C@@H](c2cc(F)ccc2F)O1` [Example 301, (4R,5R)-5-(2,5-Difluorophenyl)-4-(5-fluoro-2-(phenylethynyl)pyridin-4-yl)oxazolidin-2-one] belongs more than 7.00.
To `O=C1N[C@H](c2cc(C#Cc3ccccc3)cnc2F)[C@@H](c2cc(F)ccc2F)O1` [Example 302] belongs more than 7.00; to `COc1ncc(C#Cc2ccccc2)cc1[C@H]1NC(=O)O[C@@H]1c1cc(F)ccc1F` [Example 303, (4R,5R)-5-(2,5-Difluorophenyl)-4-(2-methoxy-5-(phenylethynyl)pyridin-3-yl)oxazolidin-2-one], less than 6.00.
